The source of these data is ChEMBL document CHEMBL4406871, “Novel berberine-based derivatives with potent hypoglycemic activity” (Bioorg Med Chem Lett, 2019).

Active and inactive are the calls of the source. The rule behind the calls is not given here.

For data set [1], the system named is HepG2. In words: Increase in glucose consumption in human HepG2 cells assessed as glucose content in medium at 10^-6 M measured after 24 hrs by glucose oxidase method relative to control. The format is functional.
In data set [2] the target is AMP-activated protein kinase (AMPK) alpha-1/beta-1/gamma-1 (Homo sapiens) (UniProt P54619+Q9Y478+Q13131). In words: Agonist activity at AMPKalpha1beta1gamma1 (unknown origin). The class given is protein-complex assay.
Sequence of AMP-activated protein kinase (AMPK) alpha-1/beta-1/gamma-1 (Homo sapiens) (P54619 whole entry): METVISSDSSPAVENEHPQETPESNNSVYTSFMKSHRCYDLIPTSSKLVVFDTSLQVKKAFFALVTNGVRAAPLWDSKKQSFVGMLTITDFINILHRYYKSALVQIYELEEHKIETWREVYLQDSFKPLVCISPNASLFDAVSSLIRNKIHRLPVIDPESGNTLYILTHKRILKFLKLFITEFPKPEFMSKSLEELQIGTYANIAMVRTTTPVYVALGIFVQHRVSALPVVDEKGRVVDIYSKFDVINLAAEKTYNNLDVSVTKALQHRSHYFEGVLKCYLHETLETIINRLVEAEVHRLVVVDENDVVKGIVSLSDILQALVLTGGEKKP
Sequence of AMP-activated protein kinase (AMPK) alpha-1/beta-1/gamma-1 (Homo sapiens) (Q13131 whole entry partner): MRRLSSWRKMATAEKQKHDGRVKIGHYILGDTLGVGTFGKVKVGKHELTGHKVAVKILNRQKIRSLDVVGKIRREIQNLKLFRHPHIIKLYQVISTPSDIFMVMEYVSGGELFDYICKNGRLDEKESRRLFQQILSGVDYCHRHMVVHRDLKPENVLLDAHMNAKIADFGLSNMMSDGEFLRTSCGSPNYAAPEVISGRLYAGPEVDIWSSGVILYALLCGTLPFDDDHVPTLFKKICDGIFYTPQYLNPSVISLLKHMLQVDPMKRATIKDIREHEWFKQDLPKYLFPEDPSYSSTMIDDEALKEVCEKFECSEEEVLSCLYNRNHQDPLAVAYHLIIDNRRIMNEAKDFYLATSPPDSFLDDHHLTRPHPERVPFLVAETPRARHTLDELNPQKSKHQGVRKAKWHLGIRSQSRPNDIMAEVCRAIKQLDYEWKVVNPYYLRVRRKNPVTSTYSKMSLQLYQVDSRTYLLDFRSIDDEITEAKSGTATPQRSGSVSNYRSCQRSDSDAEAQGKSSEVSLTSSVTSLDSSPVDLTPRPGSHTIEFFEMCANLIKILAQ
Sequence of AMP-activated protein kinase (AMPK) alpha-1/beta-1/gamma-1 (Homo sapiens) (Q9Y478 2-270 partner limits assumed): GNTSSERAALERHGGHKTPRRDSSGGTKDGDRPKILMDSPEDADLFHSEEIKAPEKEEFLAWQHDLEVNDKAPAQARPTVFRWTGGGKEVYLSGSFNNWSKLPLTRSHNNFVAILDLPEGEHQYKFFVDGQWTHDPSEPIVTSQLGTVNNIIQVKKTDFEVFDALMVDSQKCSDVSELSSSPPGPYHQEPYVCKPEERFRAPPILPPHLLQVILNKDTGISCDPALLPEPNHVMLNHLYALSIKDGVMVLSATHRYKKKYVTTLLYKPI
Data set [3] relates to HepG2. In words: Increase in glucose consumption in human HepG2 cells assessed as glucose content in medium at 10^-6 M measured after 24 hrs by glucose oxidase method relative to metformin. The format is functional.
The test system of data set [4] is HepG2. Briefly: Increase in glucose consumption in human HepG2 cells assessed as glucose content in medium at 10^-6 M measured after 24 hrs by glucose oxidase method relative to rosiglitazone. The class given is functional.
Data set [5] has as its system HepG2. In words: Activation of AMPKalpha in human HepG2 cells assessed as induction of AMPKalpha phosphorylation at Thr172 residue at 10 uM by Western blot analysis. The format is cell-based.
Data set [6] deals with AMP-activated protein kinase, AMPK (Homo sapiens) (UniProt P54646+O43741+P54619+Q9UGJ0+Q9Y478+Q13131+Q9UGI9). In words: Activation of AMPK in human HepG2 cells assessed as induction of ACC phosphorylation at Ser79 residue at 10 uM by Western blot analysis. The class given is cell-based.
Data set [7] deals with HepG2. In words: Increase in glucose consumption in human HepG2 cells assessed as glucose content in medium at 10^-6 M measured after 24 hrs by glucose oxidase method relative to berberine. The class given is functional.
The target of data set [8] is T1, Peroxisome proliferator-activated receptor gamma (Homo sapiens, UniProt P37231).
T1 sequence (P37231 whole entry): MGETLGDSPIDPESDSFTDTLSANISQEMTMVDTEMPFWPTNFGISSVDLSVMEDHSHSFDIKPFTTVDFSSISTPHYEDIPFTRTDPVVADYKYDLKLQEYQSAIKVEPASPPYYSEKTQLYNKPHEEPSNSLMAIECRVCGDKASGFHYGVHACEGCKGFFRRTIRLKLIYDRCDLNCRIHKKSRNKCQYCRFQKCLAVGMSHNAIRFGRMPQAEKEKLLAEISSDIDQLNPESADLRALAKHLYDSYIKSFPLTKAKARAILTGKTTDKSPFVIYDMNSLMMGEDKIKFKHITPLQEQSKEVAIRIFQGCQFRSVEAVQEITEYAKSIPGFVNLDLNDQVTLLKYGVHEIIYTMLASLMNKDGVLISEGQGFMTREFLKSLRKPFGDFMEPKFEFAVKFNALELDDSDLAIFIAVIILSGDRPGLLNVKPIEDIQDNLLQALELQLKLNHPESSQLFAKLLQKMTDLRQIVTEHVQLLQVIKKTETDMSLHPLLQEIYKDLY
Briefly: Transactivation of human PPARgamma transfected in U2OS cells co-tranfected with human RXR measured after 24 hrs by luciferase reporter assay. The format is cell-based.

Data set [9] can be described thus: Oral bioavailability in rat. The format is ADME, organism-based. The note with it: in vivo.

As for `COc1ccc(OC)c2c1CC1c3cc4c(cc3CC(C(=O)O)N1C2)OCO4` (stereo unspecified), the Activity in the data set on HepG2 [1] worked out at 12.43%.
Turning to `CN(CCOc1ccc(CC2SC(=O)NC2=O)cc1)c1ccccn1` (stereo unspecified) [ROSIGLITAZONE], the Activity in the data set on HepG2 [1] is given as 13.87%.
`CN(C)C(=N)NC(=N)N` [METFORMIN]: the Activity in the data set on HepG2 [1] is on record as 12.07%.
On to `O=C(O)C1CCC2C(C1)c1cc(OCc3ccccc3)ccc1N2C(=O)c1ccc(Cl)cc1` (stereo unspecified), for which the Activity in data set [2] was 362 nM.
Consider `COc1ccc2cc3[n+](cc2c1OC)C(CC(=O)O)Cc1cc2c(cc1-3)OCO2.[Cl-]` (stereo unspecified), for which the Activity with HepG2 [1] was found to be 2.8%.
Turning to `COc1ccc2cc3[n+](cc2c1OC)C(C(=O)O)Cc1cc2c(cc1-3)OCO2.[Cl-]` (stereo unspecified), the Activity in the data set on HepG2 [1] is on record as 1.88%.
Consider `COc1cc2c(c(OC)c1)CC1c3cc4c(cc3CC(C(=O)O)N1C2)OCO4` (stereo unspecified), for which the Activity with HepG2 [1] turned out to be 9.65%.
As to `COc1ccc(OC)c2c[n+]3c(cc12)-c1cc2c(cc1CC3C(=O)O)OCO2.[Cl-]` (stereo unspecified), the Activity with HepG2 [1] was 7.44%.
As for `COc1cc2c[n+]3c(cc2c(OC)c1OC)-c1cc2c(cc1CC3CC(=O)O)OCO2.[Cl-]` (stereo unspecified), the Activity with HepG2 [1] came to 10.18%.
For the compound `COc1ccc(OC)c2c[n+]3c(cc12)-c1cc2c(cc1CC3CC(=O)O)OCO2.[Cl-]` (stereo unspecified), the Activity in the data set with HepG2 [1] stood at 9.44%.
Consider `COc1ccc2c(c1OC)C[N+]1(CC(=O)O)CCc3cc4c(cc3C1C2)OCO4.[Cl-]` (stereo unspecified), for which the Activity in the data set on HepG2 [1] stood at 15.4%.
Consider `COc1cc(OC)c2cc3[n+](cc2c1)C(CC(=O)O)Cc1cc2c(cc1-3)OCO2.[Cl-]` (stereo unspecified), for which, in the data set on HepG2 [1], the Activity was determined as 9.02%.
For `COc1ccc2c(c1OC)C[N+]1(CCCC(=O)O)CCc3cc4c(cc3C1C2)OCO4.[Cl-]` (stereo unspecified), the Activity with HepG2 [1] is given as 16%. Besides, the entries for the “fold change (FC)” value in the data set with HepG2 [3] and in the data set with HepG2 [4] were 1.32 and 1.15, respectively.
For the compound `COc1ccc2c(c1OC)CN1C(C(=O)O)Cc3cc4c(cc3C1C2)OCO4` (stereo unspecified), the Activity in the data set with HepG2 [1] is on record as 6.39%.
In the case of `COc1cc2cc3[n+](cc2cc1OC)C(CC(=O)O)Cc1cc2c(cc1-3)OCO2.[Cl-]` (stereo unspecified), in the data set on HepG2 [1], the Activity is on record as 15.31%.
Turning to `COc1ccc2c(c1OC)C[N+]1(CCCCCC(=O)O)CCc3cc4c(cc3C1C2)OCO4.[Cl-]` (stereo unspecified), the Activity with HepG2 [1] is 15.78%.
On the same count and under the same terms, with `COc1ccc2c(c1OC)C[N+]1(Cc3ccc(C(=O)O)cc3)CCc3cc4c(cc3C1C2)OCO4.[Cl-]` (stereo unspecified) the figure was 12.11%; with `COc1ccc2c(c1OC)CN1C(CC(=O)O)Cc3cc4c(cc3C1C2)OCO4` (stereo unspecified), 7.16%.
`COc1cc2c(cc1OC)CN1C(C(=O)O)Cc3cc4c(cc3C1C2)OCO4` (stereo unspecified): in the data set with HepG2 [1], the Activity was 16.76%. The outcome (with HepG2 [5]; in [6]) was Active. Further, the “fold change (FC)” value with HepG2 [7] was 3.23; in the data set on HepG2 [3], 1.39; in the data set with HepG2 [4] it was 1.2. The compound also displayed a 50% effective concentration (EC50) in data set [8] of over 100 µM.
Turning to `COc1cc2c[n+]3c(cc2c(OC)c1OC)-c1cc2c(cc1CC3C(=O)O)OCO2.[Cl-]` (stereo unspecified), the Activity in the data set with HepG2 [1] worked out at 9.1%.
On to `COc1ccc2cc3[n+](cc2c1OC)CCc1cc2c(cc1-3)OCO2.[Cl-]` [BERBERINE CHLORIDE], for which the Activity in the data set on HepG2 [1] was 5.16%. For the same compound, the bioavailability in [9] is under 1%.
Take `COc1cc(OC)c2cc3[n+](cc2c1)C(C(=O)O)Cc1cc2c(cc1-3)OCO2.[Cl-]` (stereo unspecified): in the data set on HepG2 [1], the Activity is 8.62%.
As to `COc1cc2cc3[n+](cc2cc1OC)C(C(=O)O)Cc1cc2c(cc1-3)OCO2.[Cl-]` (stereo unspecified), the Activity with HepG2 [1] worked out at 6.92%. Besides, the outcome (in the data set with HepG2 [5]; in [6]) was Active. Besides, the concentration for a half-maximal effect (EC50) in data set [8] was over 100 µM.
Take `COc1ccc2c(c1OC)C[N+]1(CCCCC(=O)O)CCc3cc4c(cc3C1C2)OCO4.[Cl-]` (stereo unspecified): the Activity in the data set with HepG2 [1] is 14.52%.
